{"source": "ChEMBL document CHEMBL4304782", "about": "“Antioxidant, Anti-inflammatory, and Neuroprotective Effects of Novel Vinyl Sulfonate Compounds as Nrf2 Activator” (ACS Med Chem Lett, 2019)", "biological_target": "T1, Nuclear factor erythroid 2-related factor 2 (Homo sapiens, UniProt Q16236)", "T1 sequence (Q16236 whole entry)": "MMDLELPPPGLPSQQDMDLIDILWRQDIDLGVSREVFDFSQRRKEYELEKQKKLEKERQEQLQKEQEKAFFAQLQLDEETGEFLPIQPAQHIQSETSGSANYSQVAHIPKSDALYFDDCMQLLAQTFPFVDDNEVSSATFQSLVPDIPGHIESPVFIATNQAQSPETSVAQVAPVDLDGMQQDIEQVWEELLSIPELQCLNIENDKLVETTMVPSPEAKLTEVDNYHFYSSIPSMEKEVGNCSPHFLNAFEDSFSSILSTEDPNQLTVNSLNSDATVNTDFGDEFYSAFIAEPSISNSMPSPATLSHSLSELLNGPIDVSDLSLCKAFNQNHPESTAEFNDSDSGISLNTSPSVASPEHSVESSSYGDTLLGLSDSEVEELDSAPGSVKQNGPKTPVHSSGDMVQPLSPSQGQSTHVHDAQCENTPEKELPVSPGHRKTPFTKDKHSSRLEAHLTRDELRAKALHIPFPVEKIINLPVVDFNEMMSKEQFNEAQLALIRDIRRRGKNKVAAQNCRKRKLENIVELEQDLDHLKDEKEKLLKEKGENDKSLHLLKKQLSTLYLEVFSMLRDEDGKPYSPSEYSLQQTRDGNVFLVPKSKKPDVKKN", "assay": "Activation of ED-tagged Nrf2 in human U2OS cells co-expressing Keap1 assessed as induction of NRF2 translocation to nucleus after 6 hrs by beta-galactosidase based chemiluminescent assay", "type": "cell-based", "data": [{"smiles": "O=S(=O)(/C=C/c1ccccc1Cl)Nc1ccccc1", "values": [{"measurement": "EC50", "value": "> 10000", "unit": "nM"}]}, {"smiles": "COc1cccc(OS(=O)(=O)/C=C/c2cccc(Cl)c2)c1", "values": [{"measurement": "EC50", "value": 943, "unit": "nM"}]}, {"smiles": "COc1cccc(NS(=O)(=O)/C=C/c2ccccc2Cl)c1", "values": [{"measurement": "EC50", "value": "> 10000", "unit": "nM"}]}, {"smiles": "COc1ccc(OS(=O)(=O)/C=C/c2ccccc2Cl)cc1", "values": [{"measurement": "EC50", "value": 237, "unit": "nM"}]}, {"smiles": "COc1ccccc1OS(=O)(=O)/C=C/c1cccc(Cl)c1", "values": [{"measurement": "EC50", "value": 698, "unit": "nM"}]}, {"smiles": "O=S(=O)(/C=C/c1ccccc1)Oc1ccccc1", "values": [{"measurement": "EC50", "value": 1040, "unit": "nM"}]}, {"smiles": "COc1cccc(OS(=O)(=O)/C=C/c2ccccc2Cl)c1", "values": [{"measurement": "EC50", "value": 165, "unit": "nM"}]}, {"smiles": "COc1ccc(OS(=O)(=O)/C=C/c2ccc(Cl)cc2)cc1", "values": [{"measurement": "EC50", "value": 1160, "unit": "nM"}]}]}
